Measured values published in article PMC3834177 (Cancer Chemotherapy and Pharmacology, 2013).
Marks after values point to notes of the source that are not given here.

Tests used:
[1] = Midostaurin PK when administered with ketoconazole
Experimental: According to the US Food and Drug Administration, ketoconazole 400 mg once daily is the recommended dose to evaluate DDIs involving CYP3A4 inhibition. [drawing 1]
Adverse events (AEs) were recorded during the study and up to 1 month (28 days) after the end of study. Volunteers remained at the clinic until AEs were common toxicity criteria (CTC) grade ≤1.
A point estimate and the corresponding 90 % CI for the treatment effect were calculated for the test treatment compared with the reference. These were anti-logged to obtain the point estimate and the 90 % CI for the geometric mean ratio (GMR) on the untransformed scale. […] All ANOVAs were performed using SAS software (SAS Institute Inc., Cary, NC, USA).
(§1) The concentration of ketoconazole in plasma was assessed using a validated LC–MS/MS assay with an LLOQ of 50.0 ng/mL (WuXi Pharmatech Co, Ltd, China). The concentration of rifampicin in plasma was measured using a validated LC–MS/MS assay with an LLOQ of 5.0 ng/mL (SGS, Cephac Europe, SAS). Plasma concentrations of midazolam and its metabolite 1′-hydroxymidazolam, which is generated by CYP3A4 and CYP3A5 in humans, were measured using a validated LC–MS/MS assay with an LLOQ of ≈0.100 ng/mL (SGS, Cephac Europe, SAS). The plasma concentration of 4β-hydroxycholesterol was measured using a validated LC–MS/MS assay with an LLOQ of 3.0 ng/mL (SGS, Cephac Europe, SAS). The concentrations of 6β-hydroxycortisol and cortisol in urine were determined using validated LC–MS/MS assays with an LLOQ of 10.0 ng/mL for 6β-hydroxycortisol and 1.0 ng/mL for cortisol. The ratio of 6β-hydroxycortisol to cortisol was subsequently calculated (SGS, Cephac Europe, SAS). See Supplementary Table 2 for detailed bioanalytical methods for all 3 studies.

[2] = Midostaurin PK when administered with rifampicin; settings: for AUC0–inf, adjusted geometric mean / AUC0–last, adjusted geometric mean / C max, adjusted geometric mean / t 1/2, adjusted geometric mean / t max, median: plasma, n = 20
Experimental: These endogenous molecules served as exploratory biomarkers for CYP3A4 activity in vivo [21, 22].
A point estimate and the corresponding 90 % CI for the treatment effect (test vs reference) were calculated. These were anti-logged to obtain the GMR and respective 90 % CI. […] The median difference was estimated with the Hodges–Lehmann estimator and its respective exact two-sided 90 % CI. All formal comparative statistical analyses were performed using SAS software.
as §1

[3] = system: mutant FLT3; settings: in vitro; read-out: half-maximal inhibitory concentration (IC50), mutant FLT3; cited from earlier work
[4] = system: CYP3A4/5; settings: in vitro; read-out: IC50, CYP3A4/5 activity (midazolam 1′-hydroxylation); cited from earlier work
[5] = system: human serum protein α1-acid glycoprotein (AAG); parameters: method as in PMID 11230495; settings: cited from earlier work
[6] = cited from earlier work
[7] = plasma, Ketoconazole + midostaurin arm, n = 18
[8] = plasma, Placebo + midostaurin arm, ketoconazole study, n = 18
[9] = Placebo + midostaurin arm, rifampicin study

SMILES: CN(C(=O)c1ccccc1)[C@@H]1C[C@H]2O[C@@](C)([C@@H]1O)n1c3ccccc3c3c4c(c5c6ccccc6n2c5c31)C(=O)NC4 [CGP62221]
- elimination t 1/2 in the presence of ketoconazole ([1]; compared with placebo): prolonged
- t max, Hodges–Lehmann estimate of median difference (90 % distribution-free CI) ([1]; ketoconazole + midostaurin vs placebo + midostaurin): 114.0 (92.8, 116.0) h
- AUC0–inf, adjusted geometric mean ([1]; plasma, Ketoconazole + midostaurin arm (midostaurin 50 mg once, ketoconazole 400 mg daily), n = 18): 110,234.87 ng h/mL
- AUC0–last, adjusted geometric mean [1, 7]: 27,237.87 ng h/mL
- C max, adjusted geometric mean [1, 7]: 329.76 ng/mL
- t 1/2, adjusted geometric mean ([1]; plasma, Ketoconazole + midostaurin arm, for 4 volunteers only (flat terminal phase in others)): 142.01^b h
- AUC0–inf, adjusted geometric mean ([1]; plasma, Placebo + midostaurin arm (midostaurin 50 mg once), ketoconazole study, n = 18): 31,366.63 ng h/mL
- AUC0–last, adjusted geometric mean [1, 8]: 27,414.44 ng h/mL
- C max, adjusted geometric mean [1, 8]: 586.78 ng/mL
- t 1/2, adjusted geometric mean [1, 8]: 36.60 h
- t max, median [1, 8]: 3.51 h
- decrease in exposure (AUClast) in midostaurin + rifampicin arm ([2]; compared with midostaurin alone): 13.0 fold
- AUC0–inf, adjusted geometric mean ([2]; Placebo + midostaurin arm (midostaurin 50 mg once), rifampicin study): 35,146.80 ng h/mL
- AUC0–last, adjusted geometric mean [2, 9]: 32,266.80 ng h/mL
- C max, adjusted geometric mean [2, 9]: 631.46 ng/mL
- t 1/2, adjusted geometric mean [2, 9]: 33.74 h
- t max, median [2, 9]: 3.00 h
- AUC0–inf, adjusted geometric mean ([2]; Rifampicin + midostaurin arm (midostaurin 50 mg once, rifampicin 600 mg daily)): 2,699.43 ng h/mL
- AUC0–last, adjusted geometric mean ([2]; Rifampicin + midostaurin arm): 2,501.48 ng h/mL
- C max, adjusted geometric mean ([2]; Rifampicin + midostaurin arm): 396.25 ng/mL
- t 1/2, adjusted geometric mean ([2]; Rifampicin + midostaurin arm): 7.02 h
- t max, median ([2]; Rifampicin + midostaurin arm): 1.50 h
- IC50 [3]: 26 nM
- IC50 [4]: < 1000 nM
- bound to AAG [5]: 88–98%
- major pathway for elimination [6]: Fecal excretion
